The target in the assay is Sodium/potassium-transporting ATPase subunit alpha-1 (Canis lupus familiaris, UniProt P50997). Put plainly: Inhibition of Dog Renal Na+/K+ ATPase Activity.

Where only a bound is given, the exact number is not on record here.

Experimental: Increasing concentrations of the standard ouabain, or tested compound, were incubated with 0.3 μg of purified dog kidney enzyme for 10 min at 37° C. in 120 μl final volume of a medium containing 140 mM NaCl, 3 mM MgCl2, 50 mM Hepes-Tris, 3 mM ATP, pH 7.5. Then, 10 μl of a solution containing 10 mM KCl and 20 nCi of 32P-ATP (3-10 Ci/mmol, Perkin Elmer) were added. The reaction was allowed to continue for 15 min at 37° C. and then stopped by acidification with 20% v/v ice-cold perchloric acid. 32P was separated by centrifugation with activated Charcoal (Norit A, Serva) and the radioactivity was counted. The inhibitory activity was expressed as percent of the control samples carried out in the absence of ouabain, or tested compound.

The term IC50 denotes the point on the concentration scale where inhibition reaches its midpoint. In turn, `CCCC(=O)OCCC1CC[C@@]2(C)C(C1)[C@@H](O)C[C@@H]1[C@@H]2CC[C@]2(C)C(=O)CC[C@@H]12` (some centres not stated) [US12503484, Compound CVie217] displayed a 50% inhibitory concentration (IC50) of over 100 µM.
On to `CCCCC(C(=O)O)C1CC[C@@]2(C)C(C1)[C@H](O)C[C@@H]1[C@@H]2CC[C@]2(C)C(=O)CC[C@@H]12` (some centres not stated) [US12503484, Compound CVie219], for which the half-maximal inhibitory concentration (IC50) is over 100 µM.

Source of the values: BindingDB's records for patent US12503484 (Seismic Pharmaceuticals, 2025).
